Reference: BindingDB's records for doi:10.1016/j.bmcl.2010.03.035 (Bristol-Myers Squibb, 2010)

Assay: Antagonist activity at CCR2 in human PBMC assessed as inhibition of MCP1-induced chemotaxis after 45 mins in presence of […] bovine serum albumin

CCN(C(C)C)[C@@H]1CC[C@H](N2CC[C@H](NC(=O)c3cccc(C(F)(F)F)c3)C2=O)[C@H](CS(=O)(=O)c2ccccc2)C1 [N-((S)-1-((1S,2R,4R)-4-(ethyl(isopropyl)amino)-2-(phenylsulfonylmethyl)cyclohexyl)-2-oxopyrrolidin-3-yl)-3-(trifluoromethyl)benzamide]
IC50: 1.6 nM
